This note sets out measurements from patent US8569509B2, “Thiazole-4-carboxylic acid esters and thioesters as plant protection agents” (priority 2008, dated 2013).

Like-named read-outs stand apart in the source and are kept apart here.

The nature of this data set: log P determination (HPLC, calibration with unbranched alkan-2-ones). Type of data set: physicochemical. The settings on record: for log p: linear gradient 10% to 95% acetonitrile. As to the method:
The calibration is carried out using unbranched alkan-2-ones (having 3 to 16 carbon atoms) with known log P values (determination of the log P values by the retention times using linear interpolation between two successive alkanones). The lambda-maX values were determined in the maxima of the chromatographic signals using the UV spectra from 200 nm to 400 nm.

Where [1] appears, read: * LC-MS determination in the acidic range at pH 2.7, mobile phases 0.1% aqueous formic acid and acetonitrile (0.1% formic acid), reversed-phase C 18 HPLC.
[2] abbreviates: * LC-MS determination in the acidic range at pH 2.7, 0.1% aqueous formic acid and acetonitrile.
The mark [3] stands for this setting: pH 2.7, read-out: log P (pH 2.7).
Where [4] appears, read: pH 7.8, read-out: log P (pH 7.8).
[5] abbreviates: * LC-MS determination in the acidic range, pH 2.7, 0.1% aqueous formic acid and acetonitrile.

Regarding `CC=CC(CC)OC(=O)c1csc(C2CCN(C(=O)C(C)(C)n3nc(C)cc3C)CC2)n1` (mixture of isomers) [compound 799], the log p under setting [1] was 3.78*. As to `Cc1cc(C)n(C(C)(C)C(=O)N2CCC(c3nc(C(=O)OC(C)c4ccc(F)cc4)cs3)CC2)n1` (racemic) [compound 403], the log p under setting [2] is listed as 3.47*. On the same count and under the same terms, then `Cc1c(Cl)c(C(F)(F)F)nn1C(C)C(=O)N1CCC(c2nc(C(=O)OC3CCCCC3)cs2)CC1` (racemic) [compound 769], with 4.58*.

Regarding `Cc1c(Cl)c(C(F)(F)F)nn1C(C)C(=O)N1CCC(c2nc(C(=O)Oc3cccc4ccccc34)cs2)CC1` (racemic) [compound 770], the log p under setting [1] is reported as 4.50*. Turning to `O=C(O)c1csc(C2CCN(C(=O)Cn3nc(C(F)F)cc3C(F)F)CC2)n1` [III-1, 2-(1-{[3,5-Bis(difluoromethyl)-1H-pyrazol-1-yl]acetyl}piperidin-4-yl)-1,3-thiazole-4-carboxylic acid], the chromatographic logP under setting [3] stood at 1.71. For `O=C(O)c1csc(C2CCN(C(=O)Cn3ccc(C(F)(F)F)n3)CC2)n1` [III-2, 2-(1-{[3-(Trifluoromethyl)-1H-pyrazol-1-yl]acetyl}piperidin-4-yl)-1,3-thiazole-4-carboxylic acid], under setting [3], the chromatographic logP came out at 1.65. Consider `Cc1cc(C(F)(F)F)nn1CC(=O)N1CCCC(c2nc(C(=O)O)cs2)C1` (stereo not drawn) [III-3, 2-(1-{[5-Methyl-3-(trifluoromethyl)-1H-pyrazol-1-yl]acetyl}piperidin-3-yl)-1,3-thiazole-4-carboxylic acid], for which the chromatographic logP under setting [3] turned out to be 1.9. The same measure, in the same setting: then `Cc1cc(C(F)(F)F)nn1CC(=O)N1CCC(c2nc(C(=O)O)cs2)CC1` [III-4, 2-(1-{[5-Methyl-3-(trifluoromethyl)-1H-pyrazol-1-yl]acetyl}piperidin-4-yl)-1,3-thiazole-4-carboxylic acid], with 1.82. In the case of `Cc1c(Cl)c(C(F)(F)F)nn1CC(=O)N1CCC(c2nc(C(=O)O)cs2)CC1` [III-5, 2-(1-{[4-Chloro-5-methyl-3-(trifluoromethyl)-1H-pyrazol-1-yl]acetyl}piperidin-4-yl)-1,3-thiazole-4-carboxylic acid], under setting [3], the chromatographic logP worked out at 2.26. Regarding `CCOC(=O)c1csc(C2CCN(C(=O)Cn3nc(C(F)F)cc3C(F)F)CC2)n1` [IV-1, Ethyl 2-(1-{[3,5-bis(difluoromethyl)-1H-pyrazol-1-yl]acetyl}piperidin-4-yl)-1,3-thiazole-4-carboxylate], under setting [3], the chromatographic logP worked out at 2.52. Same read-out and setting: with `CCOC(=O)c1csc(C2CCN(C(=O)Cn3ccc(C(F)(F)F)n3)CC2)n1` [IV-2, Ethyl 2-(1-{[3-(trifluoromethyl)-1H-pyrazol-1-yl]acetyl}piperidin-4-yl)-1,3-thiazole-4-carboxylate] the figure was 2.41. Consider `CCOC(=O)c1csc(C2CCCN(C(=O)Cn3nc(C(F)(F)F)cc3C)C2)n1` (stereo not drawn) [IV-3, Ethyl 2-(1-{[5-methyl-3-(trifluoromethyl)-1H-pyrazol-1-yl]acetyl}piperidin-3-yl)-1,3-thiazole-4-carboxylate], for which, under setting [3], the chromatographic logP worked out at 2.78. For `CCOC(=O)c1csc(C2CCN(C(=O)C(C)(C)n3nc(C)cc3C)CC2)n1` [IV-4, Ethyl 2-{1-[2-(3,5-dimethyl-1H-pyrazol-1-yl)-2-methylpropanoyl]piperidin-4-yl}-1,3-thiazole-4-carboxylate], the chromatographic logP under setting [4] was 2.34. Regarding `CCOC(=O)c1csc(C2CCN(C(=O)Cn3nc(C(F)(F)F)cc3C)CC2)n1` [IV-5, Ethyl 2-(1-{[5-methyl-3-(trifluoromethyl)-1H-pyrazol-1-yl]acetyl}piperidin-4-yl)-1,3-thiazole-4-carboxylate], the chromatographic logP under setting [3] was determined as 2.62.

For `CCOC(=O)c1csc(C2CCN(C(=O)Cn3nc(C(F)(F)F)c(Cl)c3C)CC2)n1` [IV-6, Ethyl 2-(1-{[4-chloro-5-methyl-3-(trifluoromethyl)-1H-pyrazol-1-yl]acetyl}piperidin-4-yl)-1,3-thiazole-4-carboxylate], under setting [3], the chromatographic logP came to 3.17. `CC(C)(C)OC(=O)N1CCC(c2nc(C(=O)Oc3cccc4ccccc34)cs2)CC1` [IX-2, tert-Butyl 4-{4-[(1-naphthyloxy)carbonyl]-1,3-thiazol-2-yl}piperidine-1-carboxylate]: under setting [3], the chromatographic logP came to 4.5. The same measure, in the same setting: then `CC(C)(C)c1cc(C(F)(F)F)n(CC(=O)O)n1` [V-1, [3-tert-Butyl-5-(trifluoromethyl)-1H-pyrazol-1-yl]acetic acid], with 2.45. Turning to `CC(C)(C)c1cc(C(F)(F)F)nn1CC(=O)O` [V-2, [5-tert-Butyl-3-(trifluoromethyl)-1H-pyrazol-1-yl]acetic acid], the chromatographic logP under setting [3] was 2.45.

With `CC(C)(C)c1cc(C(F)(F)C(F)(F)F)n(CC(=O)O)n1` [V-3, [3-tert-Butyl-5-(pentafluoroethyl)-1H-pyrazol-1-yl]acetic acid], the chromatographic logP under setting [3] turned out to be 2.92.

Regarding `CC(C)(C)c1cc(C(F)(F)C(F)(F)F)nn1CC(=O)O` [V-4, [5-tert-Butyl-3-(pentafluoroethyl)-1H-pyrazol-1-yl]acetic acid], under setting [3], the chromatographic logP is 2.75. Same read-out and setting: then `CC(C)c1cc(C(F)(F)F)n(CC(=O)O)n1` [V-5, [3-Isopropyl-5-(trifluoromethyl)-1H-pyrazol-1-yl]acetic acid], with 2.05. For the compound `Cc1c(Cl)c(C(F)(F)F)nn1CC(=O)O` [V-6, [4-Chloro-5-methyl-3-(trifluoromethyl)-1H-pyrazol-1-yl]acetic acid], the chromatographic logP under setting [4] is 0.68.

As to `CCOC(=O)c1csc(C2CCNCC2)n1` [VI-1, 4-[4-(Ethoxycarbonyl)-1,3-thiazol-2-yl]piperidinium chloride], the chromatographic logP under setting [3] was found to be 0.42. The same measure, in the same setting: with `CCOC(=O)c1csc(C2CCCNC2)n1` (stereo not drawn) [VI-2, 3-[4-(Ethoxycarbonyl)-1,3-thiazol-2-yl]piperidinium chloride] the figure was 0.54; with `O=C(Oc1cccc2ccccc12)c1csc(C2CCNCC2)n1` [X-2, 4-{4-[(1-Naphthyloxy)carbonyl]-1,3-thiazol-2-yl}piperidinium chloride], 1.42.

For `CCOC(=O)Cn1nc(C(C)(C)C)cc1C(F)(F)F` [XVI-1, Ethyl [3-tert-butyl-5-(trifluoromethyl)-1H-pyrazol-1-yl]acetate], the chromatographic logP under setting [3] was determined as 3.89. Same read-out and setting: with `CCOC(=O)Cn1nc(C(F)(F)F)cc1C(C)(C)C` [XVI-2, Ethyl [5-tert-butyl-3-(trifluoromethyl)-1H-pyrazol-1-yl]acetate] the figure was 3.48; with `CCOC(=O)Cn1nc(C(C)(C)C)cc1C(F)(F)C(F)(F)F` [XVI-3, Ethyl [3-tert-butyl-5-(pentafluoroethyl)-1H-pyrazol-1-yl]acetate], 4.45. Same read-out and setting: with `CCOC(=O)Cn1nc(C(F)(F)C(F)(F)F)cc1C(C)(C)C` [XVI-4, Ethyl [5-tert-butyl-3-(pentafluoroethyl)-1H-pyrazol-1-yl]acetate] the figure was 4.05; with `CCOC(=O)Cn1nc(C(C)C)cc1C(F)(F)F` [XVI-5, Ethyl [3-isopropyl-5-(trifluoromethyl)-1H-pyrazol-1-yl]acetate], 3.22; with `CCOC(=O)Cn1nc(C(F)(F)F)c(Cl)c1C` [XVI-6, Ethyl [4-chloro-5-methyl-3-(trifluoromethyl)-1H-pyrazol-1-yl]acetate], 3.11. On to `CC(C)(C)c1cc(C(F)(F)C(F)(F)F)[nH]n1` [XVIII-1, 3-tert-Butyl-5-(pentafluoroethyl)-1H-pyrazole], for which the chromatographic logP under setting [3] amounted to 3.23. For the compound `Cc1cc(C(F)(F)F)nn1CC(=O)N1CCC(c2nc(C(=O)OC3CCCC3)cs2)CC1` [compound 3], the log p under setting [5] is on record as 3.40*. Take `Cc1cc(C(F)(F)F)nn1CC(=O)N1CCC(c2nc(C(=O)OC3CCc4ccccc43)cs2)CC1` (stereo not drawn) [compound 8]: the log p under setting [5] is recorded as 3.76*. For `Cc1cc(C(F)(F)F)nn1CC(=O)N1CCC(c2nc(C(=O)Oc3ccc4ccccc4c3)cs2)CC1` [compound 10], under setting [5], the log p is given as 3.84*. `Cc1cc(C(F)(F)F)nn1CC(=O)N1CCC(c2nc(C(=O)OCc3ccc(F)cc3)cs2)CC1` [compound 12]: under setting [5], the log p is 3.35*. Still for that read-out and setting: then `Cc1cc(C(F)(F)F)nn1CC(=O)N1CCC(c2nc(C(=O)OCc3ccccc3)cs2)CC1` [compound 15], with 3.37*; and `Cc1cc(C(F)(F)F)nn1CC(=O)N1CCC(c2nc(C(=O)OCc3ccc(Cl)cc3)cs2)CC1` [compound 17], with 3.73*. The same measure, in the same setting: then `Cc1ccc(COC(=O)c2csc(C3CCN(C(=O)Cn4nc(C(F)(F)F)cc4C)CC3)n2)cc1` [compound 18], with 4.21*; and `COc1ccc(COC(=O)c2csc(C3CCN(C(=O)Cn4nc(C(F)(F)F)cc4C)CC3)n2)cc1` [compound 19], with 3.30*. On to `Cc1cc(C(F)(F)F)nn1CC(=O)N1CCC(c2nc(C(=O)OCc3ccc(Cl)cc3Cl)cs2)CC1` [compound 20], for which the log p under setting [5] is given as 3.69*. On to `Cc1cc(C(F)(F)F)nn1CC(=O)N1CCC(c2nc(C(=O)OCc3cc(Cl)cc(Cl)c3)cs2)CC1` [compound 21], for which, under setting [5], the log p was 4.24*. Still for that read-out and setting: with `Cc1cc(C(F)(F)F)nn1CC(=O)N1CCC(c2nc(C(=O)OCc3c(Cl)cccc3Cl)cs2)CC1` [compound 22] the figure was 3.94*; with `Cc1cc(C(F)(F)F)nn1CC(=O)N1CCC(c2nc(C(=O)OCc3cccc(Cl)c3)cs2)CC1` [compound 24], 3.72*.

As to `Cc1cc(C(F)(F)F)nn1CC(=O)N1CCC(c2nc(C(=O)OCc3cccc(C(F)(F)F)c3)cs2)CC1` [compound 25], the log p under setting [5] is listed as 3.81*.
